# How the values were obtained:
# [1] = Toxicological investigation: acute toxicity LD50 in mice, intravenous route; conditions: mouse, in vivo, per kg body weight
# [2] = tested on: carrageenin-induced edema; assay: Anti-inflammatory action: localised carrageenin-induced edema method; format: in vivo; conditions: rats, 100 mg/kg orally 1 h before, with, 1 h and 2.5 hrs after carrageenin
# Description: (a) Localised carrageenin-induced edema method: A 1% carrageenin solution (0.1 ml) is injected in the metatarsal flexor muscles of the right hind limb of rats at time 0. The animals of the treated group are additionally administered orally 100 mg/kg of the test derivative, respectively one hour prior to and then simultaneously with the injection of the phlogogenic agent, and then 1 hour and 2.5 hrs thereafter. The percent anti-inflammatory activity with reference to the reference group, as a function of time, is determined by measurements effected with a Roch micrometer at times 0, 1 hour, 2 hours, 3 hours and 5 hours after carrageenin administration. The results obtained with derivatives nos.
# [3] = tested on: ovalbumin-induced systemic edema; assay: Anti-inflammatory action: ovalbumin-induced systemic edema method; format: in vivo; conditions: rats, 100 mg orally 1 hr prior to and with ovalbumin, vs control group
# Description: (b) Ovalbumin-induced systemic edema method Rats are administered a simultaneous intraperitoneal injection of 1 ml ovalbumin and 0.5 ml of a 1°/.Salinity. aqueous Evans Blue solution. The animals of the treated group are additionally administered orally 100 mg of the test derivative, 1 hr prior to and simultaneously with ovalbumin administration. The intensity of the phenomenon thus induced is scored according to a scale from 1 to 5, according to the progress of the inflammatory syndrome. Thus are determined the mean intensity of the edema and the percent decrease of the edema reaction with respect to the control group.
Structure (SMILES),LD50 at 24 h [1] [mg/kg],Percent anti-inflammatory activity after 1 hour [2] [%],Percent anti-inflammatory activity after 2 hours [2] [%],Percent anti-inflammatory activity after 5 hours [2] [%],Percent decrease (of the edema reaction) after 2 hours [3] [%],Percent decrease (of the edema reaction) after 3 hours [3] [%]
"COC(=O)c1ccccc1CN1CCc2sccc2C1 [Derivative no. 1, 5-o-Methoxycarbonylbenzyl-4,5,6,7-tetrahydro-thieno[3,2-c]pyridine]",92,43,50,55,51,58
"O=C(O)c1ccccc1CN1CCc2sccc2C1 [Derivative no. 2, 5-o-Carboxybenzyl-4,5,6,7-tetrahydro-thieno[3,2-c]pyridine]",300,,,,,
"COC(=O)c1ccccc1CN1Cc2ccsc2CC1C (stereo not drawn) [Derivative no. 3, 5-o-Methoxycarbonylbenzyl-6-methyl-4,5,6,7-tetrahydrothieno[3,2-c]pyridine]",65,,,,,
"Cl.Clc1ccc(CN2CCc3sccc3C2)s1 [Derivative no. 4, 5-[(5-Chloro-2-thienyl)-methyl]-4,5,6,7-tetrahydro-thieno[3,2-c]pyridine hydrochloride]",165,39,47,54,48,53
"OC(CN1CCc2sccc2C1)c1cccs1 (stereo not drawn) [Derivative no. 5, 5-[2-hydroxy-2-(2-thienyl)-ethyl]-4,5,6,7-tetrahydro-thieno[3,2-c]pyridinefumarate]",75,45,53,59,50,61
"Cl.Clc1ccccc1C=CCN1CCc2sccc2C1 [Derivative no. 6, 5-(3-o-chlorophenyl-2-propenyl)-4,5,6,7-tetrahydro-thieno[3,2-c]pyridine hydrochloride]",60,,,,,
"N#Cc1ccccc1CN1CCc2sccc2C1.O=C(O)/C=C\C(=O)O [Derivative no. 7, 5-o-cyanobenzyl-4,5,6,7-tetrahydrothieno[3,2-c]pyridine maleate]",45,,,,,
"Cl.c1cc2c(s1)CCN(Cc1ccc3c(c1)OCO3)C2 [Derivative no. 8, 5-(3,4-methylenedioxy-benzyl)-4,5,6,7-tetrahydro-thieno[3,2-c]pyridine hydrochloride]",65,41,51,59,54,64
"OCc1ccccc1CN1CCc2sccc2C1 [Derivative no. 10, 5-o-hydroxy-methylbenzyl-4,5,6,7-tetrahydrothieno[3,2-c]pyridine]",,36,48,56,51,62

# Source: US4097482A, “5-O-Cyanobenzyl-4,5,6,7-tetrahydro-thieno[3,2-c]pyridine maleate” (Centre d'Etudes Pour L'Industrie Pharmaceutique, priority 1975, dated 1978)
